The IC50 is the concentration at which inhibition is half-maximal.

The source made the active and inactive calls. No stated cut-off is given here; in the data, actives have a measured IC50 and inactives only a lower limit.

The values that follow come from ChEMBL document CHEMBL1201862, “PubChem BioAssay data set” (2004).

What all share (assay type): functional
In assay [1] the target is T1, Sentrin-specific protease 6 (Homo sapiens, UniProt Q9GZR1).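 Further: Luminescence-based dose-response confirmatory assay of SENP6 inhibition, following up an ultra-high-throughput screen.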
T1 sequence (Q9GZR1 whole entry): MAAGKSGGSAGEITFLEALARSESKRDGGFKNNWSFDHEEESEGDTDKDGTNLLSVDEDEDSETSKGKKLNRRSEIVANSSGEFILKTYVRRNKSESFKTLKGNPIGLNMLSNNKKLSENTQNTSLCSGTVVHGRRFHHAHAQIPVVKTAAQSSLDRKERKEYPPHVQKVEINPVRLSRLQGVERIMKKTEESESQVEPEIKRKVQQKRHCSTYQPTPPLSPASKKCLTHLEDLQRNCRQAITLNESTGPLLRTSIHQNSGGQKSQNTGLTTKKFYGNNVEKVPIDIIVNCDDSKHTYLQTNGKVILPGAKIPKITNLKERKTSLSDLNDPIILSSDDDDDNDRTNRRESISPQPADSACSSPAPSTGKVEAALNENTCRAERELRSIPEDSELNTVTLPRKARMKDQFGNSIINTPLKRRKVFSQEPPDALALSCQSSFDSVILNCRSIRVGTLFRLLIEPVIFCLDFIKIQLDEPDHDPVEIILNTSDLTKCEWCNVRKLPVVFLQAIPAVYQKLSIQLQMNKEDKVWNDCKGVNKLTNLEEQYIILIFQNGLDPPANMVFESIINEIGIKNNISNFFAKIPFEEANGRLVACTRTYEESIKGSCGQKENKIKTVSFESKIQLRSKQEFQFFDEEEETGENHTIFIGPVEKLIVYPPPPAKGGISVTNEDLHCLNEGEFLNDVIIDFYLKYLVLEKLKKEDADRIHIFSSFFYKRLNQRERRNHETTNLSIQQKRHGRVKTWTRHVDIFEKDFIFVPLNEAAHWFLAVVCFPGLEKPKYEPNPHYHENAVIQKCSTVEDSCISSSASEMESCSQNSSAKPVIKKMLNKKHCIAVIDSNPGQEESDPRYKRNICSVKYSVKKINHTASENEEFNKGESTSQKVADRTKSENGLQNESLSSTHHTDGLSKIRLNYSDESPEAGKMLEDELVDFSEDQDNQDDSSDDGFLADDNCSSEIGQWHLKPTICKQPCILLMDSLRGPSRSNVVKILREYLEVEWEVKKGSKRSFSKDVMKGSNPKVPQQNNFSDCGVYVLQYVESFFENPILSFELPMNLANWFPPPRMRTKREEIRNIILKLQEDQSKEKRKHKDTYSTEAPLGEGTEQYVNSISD

For the next assay, the target named is T2, Caspase-3 (Homo sapiens, UniProt P42574).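 Further: Dose-response selectivity test against caspase-3 for candidate inhibitors of sentrin-specific proteases (SENPs).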
T2 sequence (P42574 whole entry): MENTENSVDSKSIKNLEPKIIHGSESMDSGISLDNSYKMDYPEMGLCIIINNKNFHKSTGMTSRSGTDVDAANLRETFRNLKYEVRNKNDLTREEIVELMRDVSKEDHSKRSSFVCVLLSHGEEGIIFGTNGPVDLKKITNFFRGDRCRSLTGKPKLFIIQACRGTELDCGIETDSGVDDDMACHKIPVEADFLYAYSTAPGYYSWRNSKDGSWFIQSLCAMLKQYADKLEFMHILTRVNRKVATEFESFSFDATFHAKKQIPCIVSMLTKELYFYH

Assay [2] concerns the target T3, Sentrin-specific protease 7 (Homo sapiens, UniProt Q9BQF6).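 Further: Luminescence-based dose-response confirmation of ultra-high-throughput screening hits, measuring inhibition of SENP7.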
T3 sequence (Q9BQF6 whole entry): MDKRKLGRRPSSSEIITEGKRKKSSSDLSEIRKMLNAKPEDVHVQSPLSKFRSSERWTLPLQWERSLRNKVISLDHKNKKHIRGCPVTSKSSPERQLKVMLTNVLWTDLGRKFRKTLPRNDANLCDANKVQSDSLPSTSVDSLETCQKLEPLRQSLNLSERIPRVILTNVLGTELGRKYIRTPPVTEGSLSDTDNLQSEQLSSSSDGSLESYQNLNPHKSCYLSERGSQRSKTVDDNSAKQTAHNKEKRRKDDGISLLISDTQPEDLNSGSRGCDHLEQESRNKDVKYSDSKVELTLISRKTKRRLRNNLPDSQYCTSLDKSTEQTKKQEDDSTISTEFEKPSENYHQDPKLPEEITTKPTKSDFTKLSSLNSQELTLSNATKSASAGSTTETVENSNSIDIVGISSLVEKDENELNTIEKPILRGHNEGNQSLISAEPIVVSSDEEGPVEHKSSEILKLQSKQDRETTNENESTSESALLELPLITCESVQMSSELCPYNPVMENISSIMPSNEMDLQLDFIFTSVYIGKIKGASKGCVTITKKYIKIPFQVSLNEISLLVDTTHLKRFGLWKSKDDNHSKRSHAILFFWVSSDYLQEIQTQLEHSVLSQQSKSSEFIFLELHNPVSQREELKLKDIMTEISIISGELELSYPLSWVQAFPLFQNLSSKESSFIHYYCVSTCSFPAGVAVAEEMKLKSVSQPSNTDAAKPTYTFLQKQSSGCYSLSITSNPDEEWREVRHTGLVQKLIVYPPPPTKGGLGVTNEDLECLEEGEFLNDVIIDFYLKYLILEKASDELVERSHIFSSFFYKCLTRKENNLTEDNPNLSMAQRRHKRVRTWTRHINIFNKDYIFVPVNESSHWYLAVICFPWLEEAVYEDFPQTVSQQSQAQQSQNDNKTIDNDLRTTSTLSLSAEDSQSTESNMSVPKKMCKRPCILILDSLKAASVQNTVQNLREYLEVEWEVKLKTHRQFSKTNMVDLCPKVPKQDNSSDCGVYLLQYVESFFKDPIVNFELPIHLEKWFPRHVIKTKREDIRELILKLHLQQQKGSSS

In assay [3] the target is T4, Sentrin-specific protease 8 (Homo sapiens, UniProt Q96LD8).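 Further: luminescence read-out of SENP8 inhibition, dose-response confirmation following an ultra-high-throughput screen.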
T4 sequence (Q96LD8 whole entry): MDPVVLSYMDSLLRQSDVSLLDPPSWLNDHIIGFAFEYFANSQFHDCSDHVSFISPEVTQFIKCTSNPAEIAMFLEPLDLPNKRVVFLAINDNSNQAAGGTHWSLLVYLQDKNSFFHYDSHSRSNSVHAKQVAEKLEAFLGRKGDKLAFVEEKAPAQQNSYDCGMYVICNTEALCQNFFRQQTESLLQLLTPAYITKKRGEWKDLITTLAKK

Regarding `COc1ccc(C(C[N+](=O)[O-])c2c(C)[nH]n(-c3ccccc3)c2=O)cc1` (stereo not drawn), the IC50 in assay [1] is 7.1 µM (active); at Caspase-3, > 100 µM (inactive); in assay [2], 7.15 µM (active); in assay [3], 8.32 µM (active).

Regarding `O=C(COC(=O)c1ccc([N+](=O)[O-])s1)Nc1cccc(S(=O)(=O)/N=C2/CCCCCN2)c1`, the IC50 was 4.62 µM (active) in assay [1], 10 µM (active) at Caspase-3, 7.08 µM (active) in assay [2] and 4.92 µM (active) in assay [3].
